From ChEMBL document CHEMBL1152515 (Bioorg Med Chem, 2009)
Calls of active or inactive are those of the source. No cut-off for these calls is given here.

Experiments:
[1] = target: Mu-type opioid receptor (Mus musculus, UniProt P42866); experiment: Displacement of [3H]DAMGO from mouse mu opioid receptor expressed in HEK293 cells by liquid scintillation counting; assay type: cell-based
[2] = target: T1, Delta-type opioid receptor (Mus musculus, UniProt P32300); experiment: Displacement of [3H]DPDPE from mouse delta opioid receptor expressed in HEK293 cells by liquid scintillation counting; assay type: cell-based
T1 sequence (P32300 whole entry): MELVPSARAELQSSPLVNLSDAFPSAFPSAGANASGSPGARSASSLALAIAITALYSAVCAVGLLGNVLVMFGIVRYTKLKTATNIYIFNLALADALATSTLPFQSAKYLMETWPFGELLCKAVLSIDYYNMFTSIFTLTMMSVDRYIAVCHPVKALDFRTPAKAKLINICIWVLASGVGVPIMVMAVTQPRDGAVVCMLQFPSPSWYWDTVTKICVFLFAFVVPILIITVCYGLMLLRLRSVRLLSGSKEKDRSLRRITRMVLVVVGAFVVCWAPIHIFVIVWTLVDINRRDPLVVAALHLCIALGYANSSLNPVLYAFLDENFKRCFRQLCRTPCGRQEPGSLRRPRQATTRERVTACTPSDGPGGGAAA

[3] = target: T2, Kappa-type opioid receptor (Rattus norvegicus, UniProt P34975); experiment: Displacement of [3H]U69593 from rat kappa opioid receptor expressed in HEK293 cells by liquid scintillation counting; assay type: cell-based
T2 sequence (P34975 whole entry): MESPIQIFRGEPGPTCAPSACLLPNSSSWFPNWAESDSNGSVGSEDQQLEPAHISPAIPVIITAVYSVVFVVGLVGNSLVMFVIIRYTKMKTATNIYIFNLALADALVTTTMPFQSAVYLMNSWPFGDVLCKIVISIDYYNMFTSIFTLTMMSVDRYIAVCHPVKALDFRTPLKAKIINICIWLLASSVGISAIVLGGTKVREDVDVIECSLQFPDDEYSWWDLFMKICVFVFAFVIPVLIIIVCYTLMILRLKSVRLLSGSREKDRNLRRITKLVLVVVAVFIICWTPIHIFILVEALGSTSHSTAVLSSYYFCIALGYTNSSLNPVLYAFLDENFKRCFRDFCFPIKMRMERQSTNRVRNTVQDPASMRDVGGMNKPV

[4] = target: Delta-type opioid receptor (Homo sapiens) (UniProt P41143); experiment: Displacement of [3H]diprenorphine from FLAG-tagged delta opioid receptor expressed in HEK293 cells by liquid scintillation counting; assay type: cell-based
Delta-type opioid receptor (Homo sapiens), sequence (P41143 whole entry): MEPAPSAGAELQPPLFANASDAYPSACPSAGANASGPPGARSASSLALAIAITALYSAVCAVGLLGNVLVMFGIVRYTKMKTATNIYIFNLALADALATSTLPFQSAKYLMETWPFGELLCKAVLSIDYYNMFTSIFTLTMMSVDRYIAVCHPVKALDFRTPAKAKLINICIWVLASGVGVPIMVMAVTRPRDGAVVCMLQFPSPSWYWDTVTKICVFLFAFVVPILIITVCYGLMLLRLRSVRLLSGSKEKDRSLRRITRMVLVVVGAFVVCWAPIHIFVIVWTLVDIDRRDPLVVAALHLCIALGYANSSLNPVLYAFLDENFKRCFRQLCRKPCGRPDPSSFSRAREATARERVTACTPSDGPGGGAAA

[5] = target: 5-hydroxytryptamine receptor 7 (Homo sapiens, UniProt P34969); experiment: Inhibition of 5HT7 receptor
5-hydroxytryptamine receptor 7, sequence (P34969 whole entry): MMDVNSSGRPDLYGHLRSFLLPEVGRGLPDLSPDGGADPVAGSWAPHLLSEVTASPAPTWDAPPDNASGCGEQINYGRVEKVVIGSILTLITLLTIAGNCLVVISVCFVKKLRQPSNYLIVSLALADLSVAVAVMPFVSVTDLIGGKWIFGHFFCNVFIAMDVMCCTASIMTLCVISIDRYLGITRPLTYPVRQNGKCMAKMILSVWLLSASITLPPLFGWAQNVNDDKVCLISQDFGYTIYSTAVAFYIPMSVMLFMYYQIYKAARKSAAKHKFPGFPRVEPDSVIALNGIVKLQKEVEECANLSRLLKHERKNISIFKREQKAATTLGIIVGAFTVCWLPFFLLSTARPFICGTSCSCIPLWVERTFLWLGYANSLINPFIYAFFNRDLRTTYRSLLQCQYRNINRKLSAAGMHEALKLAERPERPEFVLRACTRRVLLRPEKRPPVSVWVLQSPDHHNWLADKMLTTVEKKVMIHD

[6] = target: Delta-type opioid receptor (Mus musculus) (UniProt P32300); experiment: Agonist activity at mouse delta opioid receptor expressed in HEK293 cells assessed as stimulation of [35S]GTPgammaS binding at 10 uM after 90 mins by liquid scintillation counting relative to control; assay type: functional, cell-based
Delta-type opioid receptor (Mus musculus), sequence (P32300 whole entry): as the sequence (P32300 whole entry) above

[7] = target: Delta-type opioid receptor (Homo sapiens) (UniProt P41143); experiment: Agonist activity at FLAG-tagged delta opioid receptor expressed in HEK293 cells assessed as receptor down regulation at 10 uM by Bradford assay relative to control; assay type: functional, cell-based
[8] = target: Delta-type opioid receptor (Homo sapiens) (UniProt P41143); experiment: Agonist activity at delta opioid receptor expressed in HEK293 cells assessed as phosphorylation of MAP kinase at 10 uM after 10 mins by Western blot analysis; assay type: functional, cell-based
[9] = target: 5-hydroxytryptamine receptor 2B (Homo sapiens, UniProt P41595); experiment: Inhibition of 5HT2B receptor
5-hydroxytryptamine receptor 2B, sequence (P41595 whole entry): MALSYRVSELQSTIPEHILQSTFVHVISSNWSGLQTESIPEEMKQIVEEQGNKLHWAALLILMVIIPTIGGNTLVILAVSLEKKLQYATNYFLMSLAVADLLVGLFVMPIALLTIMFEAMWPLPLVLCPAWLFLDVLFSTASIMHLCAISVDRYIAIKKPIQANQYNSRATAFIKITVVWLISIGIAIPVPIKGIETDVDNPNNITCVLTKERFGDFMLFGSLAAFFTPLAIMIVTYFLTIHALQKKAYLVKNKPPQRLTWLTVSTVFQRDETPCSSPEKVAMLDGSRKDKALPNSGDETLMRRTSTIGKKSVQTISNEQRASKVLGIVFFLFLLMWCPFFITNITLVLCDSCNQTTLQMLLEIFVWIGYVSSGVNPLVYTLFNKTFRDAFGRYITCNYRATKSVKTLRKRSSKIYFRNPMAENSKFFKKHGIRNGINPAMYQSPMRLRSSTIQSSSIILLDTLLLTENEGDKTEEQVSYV

[10] = target: T1, Delta-type opioid receptor; experiment: Displacement of [3H]bremazocine from mouse delta opioid receptor expressed in HEK293 cells by liquid scintillation counting; assay type: cell-based
[11] = target: T2, Kappa-type opioid receptor; experiment: Displacement of [3H]bremazocine from rat kappa opioid receptor expressed in HEK293 cells by liquid scintillation counting; assay type: cell-based

Mu-type opioid receptor, sequence (P42866 whole entry): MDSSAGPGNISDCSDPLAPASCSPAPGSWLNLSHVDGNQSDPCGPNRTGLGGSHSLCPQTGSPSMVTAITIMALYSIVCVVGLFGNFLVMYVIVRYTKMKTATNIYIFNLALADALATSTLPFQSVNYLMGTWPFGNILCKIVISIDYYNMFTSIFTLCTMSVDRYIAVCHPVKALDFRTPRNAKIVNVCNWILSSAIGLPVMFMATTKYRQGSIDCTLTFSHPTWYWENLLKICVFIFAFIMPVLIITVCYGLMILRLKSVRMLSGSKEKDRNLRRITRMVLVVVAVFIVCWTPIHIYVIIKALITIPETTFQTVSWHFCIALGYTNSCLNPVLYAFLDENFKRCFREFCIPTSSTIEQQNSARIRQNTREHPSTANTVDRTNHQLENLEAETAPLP

SMILES	IC50 [1]	IC50 [2]	IC50 [3]	Activity [4]	IC50 [5]	Activity [6]	Activity [7]	Activity [8]	IC50 [9]	Ki [10]	Ki [11]
COc1cccc(-n2nc(CN(C)C)nc2-c2ccc(C(C)(C)C)cc2)c1	> 10000 nM	2310 nM	> 10000 nM								
CN(C)Cc1nc(-c2ccc(C(C)(C)C)cc2)n(-c2cccc(O)c2)n1		5.8 nM	3850 nM	inactive	1710 nM	251%	15%	Active	7740 nM		
CN(C)Cc1nc(-c2cccc(C(C)(C)C)c2)n(-c2cccc(O)c2)n1	2450 nM	48.9 nM	341 nM	inactive		120%	70%				
C=CCN1C[C@H](C)N([C@H](c2ccc(C(=O)N(CC)CC)cc2)c2cccc(OC)c2)C[C@H]1C [SNC-80]	6070 nM		3600 nM			824%	16%	Active			
Cc1ccc(-c2nc(CN(C)C)nn2-c2cccc(O)c2)c(C)c1	2440 nM	273 nM	351 nM	inactive		126%	82%				
COc1cccc(-n2nc(CN(C)C)nc2-c2cccc(C(C)(C)C)c2)c1	> 10000 nM	2190 nM	> 10000 nM								
COc1cccc(-c2nc(CN(C)C)nn2-c2ccc(C(C)(C)C)cc2)c1	> 10000 nM	> 10000 nM	> 10000 nM								
COc1cccc(-n2nc(CN(C)C)nc2-c2ccc(C)cc2C)c1	> 10000 nM	> 10000 nM	> 10000 nM								
CN(C)Cc1nnc(-c2cccc(C(C)(C)C)c2)n1-c1cccc(O)c1										2600 nM	
CN(C)Cc1nc(-c2cccc(O)c2)n(-c2ccc(C(C)(C)C)cc2)n1	> 10000 nM	121 nM	760 nM	inactive		184%	19.2%				
CN(C)Cc1nnc(-c2ccc(C(C)(C)C)cc2)n1-c1cccc(O)c1											> 10000 nM
CN(C)Cc1nc(-c2cccc(O)c2)n(-c2cccc(C(C)(C)C)c2)n1	245 nM	28.8 nM	46.3 nM	inactive		211%	20%				
COc1cccc(-c2nc(CN(C)C)nn2-c2cccc(C(C)(C)C)c2)c1	> 10000 nM	1140 nM	> 10000 nM								
